According to publication PMC12114633, “α-Glucosidase Inhibition Mechanism and Anti-Hyperglycemic Effects of Flavonoids from Astragali Radix and Their Mixture Effects” (Pharmaceuticals, 2025):
Read-outs that look alike come from different tables or passages of the source.

Tests used:
blood glucose = settings: 50 mg/kg, cited from earlier work
[1] = target: T1, Saccharomyces cerevisiae α-glucosidase (Saccharomyces cerevisiae, UniProt P53341); test: biochemical; settings: IC50, α-glucosidase 0.2 U/mL, 5 mM pNPG, PBS pH 6.8, 37 °C
T1 construct: purchased Shanghai Yuanye Biotechnology Co., Shanghai, China Lot No. M23HS178879 (catalogue number not given)
T1 sequence (P53341 whole entry): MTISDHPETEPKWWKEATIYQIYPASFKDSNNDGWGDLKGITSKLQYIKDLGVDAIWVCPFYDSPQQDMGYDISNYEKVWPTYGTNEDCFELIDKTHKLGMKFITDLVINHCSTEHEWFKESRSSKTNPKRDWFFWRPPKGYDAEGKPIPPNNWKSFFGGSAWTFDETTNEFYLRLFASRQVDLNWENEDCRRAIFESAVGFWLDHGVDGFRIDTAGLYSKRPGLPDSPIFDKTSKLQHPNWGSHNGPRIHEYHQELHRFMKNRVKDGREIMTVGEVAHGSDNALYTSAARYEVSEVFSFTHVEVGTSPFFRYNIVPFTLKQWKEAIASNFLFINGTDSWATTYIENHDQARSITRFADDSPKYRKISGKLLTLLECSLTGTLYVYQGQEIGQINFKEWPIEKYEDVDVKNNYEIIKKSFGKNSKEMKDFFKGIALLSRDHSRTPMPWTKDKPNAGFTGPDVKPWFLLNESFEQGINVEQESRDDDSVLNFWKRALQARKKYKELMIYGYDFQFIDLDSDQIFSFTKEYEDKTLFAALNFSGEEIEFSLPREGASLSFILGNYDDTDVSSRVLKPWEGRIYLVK
Method: (§1) The α-glucosidase inhibitory effects of flavonoids were evaluated as in a previous report with slight modifications (including changes in the concentrations of the enzyme, substrate, and Na2CO3). Briefly, 50 μL of phosphate-buffered saline (PBS, 0.1 M, pH 6.8), the test compound, and α-glucosidase (0.2 U/mL) were preincubated in a 96-well plate at 37 °C for 10 min. The reaction was then initiated by adding 50 μL of 5 mM pNPG as the substrate. Subsequently, the 96-well plate was incubated for an additional 30 min at 37 °C, then 50 μL of 0.2 M Na2CO3 was added to terminate the reaction. Absorbance was measured at under 405 nm.

α-glucosidase [2] = target: T2, α-glucosidase (Saccharomyces cerevisiae, UniProt P53341); test: Inhibitory kinetic analysis (Lineweaver–Burk plot); format: biochemical; settings: Lineweaver–Burk plots, pNPG 0.31–20 mM
T2 construct: purchased Shanghai Yuanye Biotechnology Co., Shanghai, China Lot No. M23HS178879 (catalogue number not given)
T2 sequence (P53341 whole entry): as above
Method: The type of inhibition was determined by using the kinetics curve and the Lineweaver–Burk plot. […] These compounds were incubated with α-glucosidase at 37 °C for 30 min. After incubation, various concentrations of pNPG (0.31–20 mM) were added, and absorbance was measured at 405 nm. The Lineweaver–Burk plot was obtained by plotting 1/[S] on the x-axis and 1/v on the y-axis, where [S] represents substrate concentration and v represents the reaction velocity.

α-glucosidase [3] = target: T2, α-glucosidase; test: CD spectroscopy, secondary structure of α-glucosidase (BeStSel); settings: for β-turn: free enzyme 11.7; for β-sheet: free enzyme 28.8; for random coil: free enzyme 45.2; for α-helix: free enzyme 14.4
Method: CD spectra in the far-UV region (190–250 nm) were scanned by using a CD spectrometer (JASCO-1.5 Tokyo, Japan). […] The slit width was set to 1 nm, and the baseline was calibrated with PBS (phosphate buffered saline). CD spectra were averaged over three scans under a constant nitrogen flow, with the buffer signal subtracted. The results were analyzed using the BeStSel database (https://bestsel.elte.hu/index.php, accessed on 16 May 2025).

α-glucosidase [4] = target: T2, α-glucosidase; test: biochemical; format: binding
Method: SPR analysis was performed using the Biacore 8K system (GE Healthcare, Uppsala, Sweden). α-Glucosidase (0.05 mg/mL) was fixed on the CM5 sensor chip by an amine coupling kit. Subsequently, various concentrations of the 16 flavonoids dissolved in 5% DMSO were continuously injected onto the surface of α-glucosidase coated surface. After each sample injection, the sensor chip surface was washed and regenerated with running buffer (PBS) at a flow rate of 30 µL/min. According to the 1:1 Langmuir model, the equilibrium dissociation constant (KD) was calculated by the Biacore evaluation software. For sensorgrams without significant kinetic features, the KD values were calculated using the steady-state analysis.

α-glucosidase [5] = target: T2, α-glucosidase; test: Mixture effects of flavonoid combinations on α-glucosidase; format: biochemical; settings: calculated from the dose–response curve
Method: as §1
The inhibitory activity of the composition was evaluated using the same method described in Section 3.2. […] The combination index (CI, Formula (3)) was subsequently used to assess the interactions between the compounds [60].(2) Y=Bottom+Top−Bottom/1+10^^((LogIC50−X)×HillSlope)
In Formula (3), (D)j represents the concentration of component j in the mixture needed to achieve an effect of x, while (Dx)j denotes the concentration of component j required to produce the same effect when acting alone. Here, x refers to the inhibition rate produced by the composition, and n indicates the number of individual compounds in the composition.

normal C57BL/6J mice = test: Oral sucrose test, postprandial blood glucose; format: in vivo; settings: for Blood glucose levels: 30 min after sucrose 4 g/kg, n = 8, in mmol/L (unit assumed); for Rate of blood glucose reduction: vs model group, 30 min after sucrose
Excerpt: Male C57BL/6J mice of SPF grade, aged 6–8 weeks and weighing 18–22 g, were obtained from the Experimental Animal Science Department of Peking University. The mice were housed in a controlled environment with a 12:12 light/dark cycle and a constant temperature. They were provided with standard pellet feed and given free access to drinking water. To ensure acclimatization, the mice were allowed to adjust to the diet and housing conditions for one week prior to the experiment. All animal experiments were performed in compliance with the relevant laws and institutional guidelines for the care and use of laboratory animals in China. The experiments were approved by the Laboratory Animal Management and Ethics Committee of Peking University (LA2021443). Additionally, the certification number for the laboratory animal personnel is 1120111300011.
The 16 flavonoids were subsequently evaluated for their potential antihyperglycemic effects by using the oral sucrose test, which is commonly used to evaluate intestinal α-glucosidase inhibition in vivo [62]. Normal C57BL/6J mice were randomly divided into model groups and the 16 flavonoid compound groups (n = 8 per group), respectively. The flavonoids at different concentrations were suspended in 0.5% sodium carboxymethyl cellulose (CMC-Na). […] Fifteen minutes after drug administration, the mice were given a sucrose solution (4 g/kg). Blood samples were collected from the tail vein at 30 min after sucrose loading, and blood glucose levels were measured using an Accu-Chek Performa glucometer (Roche Diagnostics, SN: 79508621393, Shanghai, China). The rate of blood glucose reduction was calculated using the following Formula (4):(4) The rate of blood glucose reduction%=the model blood glucose-the sample blood glucose/the model blood glucose×100%

α-glucosidase [6] = settings: literature values, reference given; read-out: IC50 in References; cited from earlier work
[7] = molar ratio 10:1, α-glucosidase 4 μM
[8] = molar ratio 40:1, α-glucosidase 4 μM

In the case of `O=c1c(O)c(-c2ccc(O)c(O)c2)oc2cc(O[C@@H]3O[C@H](CO)[C@@H](O)[C@H](O)[C@H]3O)c(O)c(O)c12` [quercetagetin-7-O-glucoside], the “reduction of blood glucose” value (blood glucose; ref 51 (Tian et al.)) is listed as 16.7%.
In the case of `C[C@@H]1O[C@@H](OC[C@H]2O[C@@H](Oc3cc4c(O)cc(O)cc4[o+]c3-c3ccc(O)cc3)[C@H](O)[C@@H](O)[C@@H]2O)[C@H](O)[C@H](O)[C@H]1O` [pelargonidin-3-O-rutinoside], the “reduction of blood glucose” value (blood glucose; ref 52 (Xu et al.)) is given as 18.5%.
For `COc1ccc(-c2coc3cc(O[C@@H]4O[C@H](CO)[C@@H](O)[C@H](O)[C@H]4O)ccc3c2=O)cc1O` [C16, calycosin-7-O-glucoside], the IC50 [1] was 563 ± 43.6 µM, the “type of inhibition on α-glucosidase” value (α-glucosidase [2]) was “mixed-type inhibitors” and the β-turn (α-glucosidase [3]; [7]) was 11.7%. It also gave a β-sheet (α-glucosidase [3]; [7]) of 29.5%, a random coil (α-glucosidase [3]; [7]) of 45.6% and a β-turn (α-glucosidase [3]; [8]) of 11.5%. The α-helix (α-glucosidase [3]; [8]) was 12.1%, the β-sheet (α-glucosidase [3]; [8]) was 27.7% and the random coil (α-glucosidase [3]; [8]) was 48.6%. The α-helix (α-glucosidase [3]; molar ratio compound:α-glucosidase 10:1, α-glucosidase 4 μM) was 13.3%, the Kd (α-glucosidase [4]) was 364 µM and the IC05 (α-glucosidase [5]) was 150.00 µM. For the same compound, the Blood glucose levels (normal C57BL/6J mice; 10 mg/kg oral) was 15.01 ± 1.15, the “Rate of blood glucose reduction” value (normal C57BL/6J mice; 10 mg/kg oral) was 2.75% and the Blood glucose levels (normal C57BL/6J mice; 25 mg/kg oral) was 13.71 ± 0.77. For the same compound, the “Rate of blood glucose reduction” value (normal C57BL/6J mice; 25 mg/kg oral) was 11.17%, the Blood glucose levels (normal C57BL/6J mice; 50 mg/kg oral) was 12.78 ± 0.74 and the “Rate of blood glucose reduction” value (normal C57BL/6J mice; 50 mg/kg oral) was 17.25%. For the same compound, the IC50 (α-glucosidase [6]) was 174 µM.
